Test results: ChEMBL document CHEMBL1124516, “Synthesis of 2,3-diaziridinyl-1,4-naphthoquinone sulfonate derivatives as potential antineoplastic agents” (1989)

Key:
L1210 [1] = assay: Number L1210 (murine leukemia) inoculated mice surviving for >50 days following 25 mg/kg i.p.; assay type: functional, Mus musculus; conditions: route intraperitoneal
L1210 [2] = assay: Percentage survival time of L1210 (murine leukemia) inoculated mice following 20 mg/kg i.p.; assay type: functional, Mus musculus; conditions: route intraperitoneal
Mus musculus [3] = assay: Average change in weight in mice bearing the L1210 Leukemia, when compound(30 mg/kg) was administered once daily beginning 24 hr after tumor implantation, for 6 consecutive days.; assay type: functional
Mus musculus [4] = assay: Number of mice survived for a period greater than 50 days when a dose of 20 mg/Kg is administered intraperitoneally; tested in 5 mice; assay type: functional
Mus musculus [5] = assay: Number of mice surviving for a period greater than 50 days when a dose of 30 mg/Kg is administered intraperitoneally; tested in 5 mice; assay type: functional
L1210 [6] = assay: Percentage survival time of L1210 (murine leukemia) inoculated mice following 25 mg/kg i.p.; assay type: functional, Mus musculus; conditions: route intraperitoneal
Mus musculus [7] = assay: Average change in weight in mice bearing the L1210 Leukemia, when compound (20 mg/kg) was administered once daily beginning 24 hr after tumor implantation, for 6 consecutive days.; assay type: functional
Mus musculus [8] = assay: Average change in weight in mice bearing the L1210 Leukemia, when compound (25 mg/kg) was administered once daily beginning 24 hr after tumor implantation, for 6 consecutive days.; assay type: functional
L1210 [9] = assay: Percentage survival time of L1210 (murine leukemia) inoculated mice following 30 mg/kg i.p.; assay type: functional, Mus musculus; conditions: route intraperitoneal
Mus musculus [10] = assay: Average change in weight in mice bearing the B16 Melanoma, when compound(150 mg/kg) was administered beginning 24 hr after tumor implantation, daily once for 6 consecutive days.; assay type: functional
Mus musculus [11] = assay: The ratio of the survival time of treated to control animals x 100 in mice bearing B16 Melanoma, when compound (50 mg/kg) was administered intraperitoneally; assay type: functional
Mus musculus [12] = assay: The ratio of the survival time of treated to control animals x 100 in mice bearing B16 Melanoma, when compound (100 mg/kg) was administered intraperitoneally; assay type: functional
Mus musculus [13] = assay: Average change in weight in mice bearing the B16 Melanoma, when compound(50 mg/kg) was administered intraperitoneally beginning 24 hr after tumor implantation, daily once for 6 consecutive days.; assay type: functional
Mus musculus [14] = assay: The ratio of the survival time of treated to control animals x 100 in mice bearing B16 Melanoma, when compound (150 mg/kg) was administered intraperitoneally; assay type: functional
Mus musculus [15] = assay: Average change in weight in mice bearing the B16 Melanoma, when compound(100 mg/kg) was administered beginning 24 hr after tumor implantation, daily once for 6 consecutive days.; assay type: functional

SMILES	Survivals (L1210 [1])	Activity (L1210 [2])	Average change in body weight (Mus musculus [3])	Survivals (Mus musculus [4])	Survivals (Mus musculus [5])	Activity (L1210 [6])	Average change in body weight (Mus musculus [7])	Average body weight change (Mus musculus [8])	Activity (L1210 [9])	Average change in body weight (Mus musculus [10])	Activity (Mus musculus [11])	Activity (Mus musculus [12])	Average body weight change (Mus musculus [13])	Activity (Mus musculus [14])	Average change in body weight (Mus musculus [15])
O=C1C(N2CC2)=C(N2CC2)C(=O)c2c(OS(=O)(=O)c3ccc([N+](=O)[O-])cc3[N+](=O)[O-])cccc21	0	111	-1.3%	0	0	105	2.3%	4.8%	100	–	–	–	–	–	–
Cc1ccc(S(=O)(=O)Oc2cccc3c2C(=O)C=C(N2CC2)C3=O)cc1	0	102	1.2%	0	0	103	7.3%	5.1%	111	–	–	–	–	–	–
CC1(C)C2CCC1(CS(=O)(=O)Oc1cccc3c1C(=O)C(N1CC1)=C(N1CC1)C3=O)C(=O)C2 (stereo not drawn)	0	136	-9.2%	0	0	148	-9.3%	-3.5%	168	–	–	–	–	–	–
O=C1C(N2CC2)=C(N2CC2)C(=O)c2c(OS(=O)(=O)c3cccc4cccnc34)cccc21	4	332	-8%	3	3	418	-6.6%	-6.5%	291	-14.3%	195	219	-1.7%	239	-8.2%
CN(C)c1cccc2c(S(=O)(=O)Oc3cccc4c3C(=O)C(N3CC3)=C(N3CC3)C4=O)cccc12	0	110	3.9%	0	0	115	2.2%	3.8%	117	–	–	–	–	–	–
O=C1C(N2CC2)=C(N2CC2)C(=O)c2c(OS(=O)(=O)Cc3ccccc3)cccc21	0	127	-3%	0	0	153	2.4%	3.1%	141	–	–	–	–	–	–
Cc1cc(C)c(S(=O)(=O)Oc2cccc3c2C(=O)C(N2CC2)=C(N2CC2)C3=O)c(C)c1	0	113	-2.6%	0	0	113	-0.4%	-2.5%	124	–	–	–	–	–	–
O=C1C(N2CC2)=C(N2CC2)C(=O)c2c(OS(=O)(=O)/C=C/c3ccccc3)cccc21	0	132	-1%	0	0	130	-3.5%	1.9%	150	–	–	–	–	–	–
CCc1ccc(S(=O)(=O)Oc2cccc3c2C(=O)C(N2CC2)=C(N2CC2)C3=O)cc1	0	147	9.9%	0	0	151	8.4%	13.6%	172	–	–	–	–	–	–
CC(C)c1cc(C(C)C)c(S(=O)(=O)Oc2cccc3c2C(=O)C(N2CC2)=C(N2CC2)C3=O)c(C(C)C)c1	0	100	7.4%	0	0	102	7.8%	9%	100	–	–	–	–	–	–
O=C1C(N2CC2)=C(N2CC2)C(=O)c2c(OS(=O)(=O)c3cccs3)cccc21	5	165	-6.4%	4	5	–	-2.3%	-4.7%	–	-22.7%	156	161	-10.8%	77	-18.2%
CC(C)(C)c1ccc(S(=O)(=O)Oc2cccc3c2C(=O)C(N2CC2)=C(N2CC2)C3=O)cc1	0	104	6.7%	0	0	98	12.8%	11.8%	98	–	–	–	–	–	–
O=C1C(N2CC2)=C(N2CC2)C(=O)c2c(OS(=O)(=O)c3cccc4ccccc34)cccc21	0	107	13.7%	0	0	104	14.6%	9.2%	104	–	–	–	–	–	–
CCCCS(=O)(=O)Oc1cccc2c1C(=O)C(N1CC1)=C(N1CC1)C2=O	0	131	-11.3%	0	0	124	0.1%	-10.9%	131	–	–	–	–	–	–
O=C1C(N2CC2)=C(N2CC2)C(=O)c2c(OS(=O)(=O)CCCCl)cccc21	0	123	-27.6%	0	0	145	-7.5%	-12.1%	150	–	–	–	–	–	–
CCCCCCCCCCCCCCCCS(=O)(=O)Oc1cccc2c1C(=O)C(N1CC1)=C(N1CC1)C2=O	0	96	9.7%	0	0	91	13%	9.9%	91	–	–	–	–	–	–
O=C1C(N2CC2)=C(N2CC2)C(=O)c2c(OS(=O)(=O)c3ccc([N+](=O)[O-])cc3)cccc21	3	402	-13.1%	4	4	293	-11.1%	-12.9%	152	–	–	–	–	–	–
